Where two headings read alike, the source gives them in different places.
What was measured:
OCT1 = target: T1, OCT1 (Homo sapiens, UniProt O15245); experiment: Uptake transporter inhibition assay, OCT1 (sumatriptan)
T1 sequence (O15245 1-554): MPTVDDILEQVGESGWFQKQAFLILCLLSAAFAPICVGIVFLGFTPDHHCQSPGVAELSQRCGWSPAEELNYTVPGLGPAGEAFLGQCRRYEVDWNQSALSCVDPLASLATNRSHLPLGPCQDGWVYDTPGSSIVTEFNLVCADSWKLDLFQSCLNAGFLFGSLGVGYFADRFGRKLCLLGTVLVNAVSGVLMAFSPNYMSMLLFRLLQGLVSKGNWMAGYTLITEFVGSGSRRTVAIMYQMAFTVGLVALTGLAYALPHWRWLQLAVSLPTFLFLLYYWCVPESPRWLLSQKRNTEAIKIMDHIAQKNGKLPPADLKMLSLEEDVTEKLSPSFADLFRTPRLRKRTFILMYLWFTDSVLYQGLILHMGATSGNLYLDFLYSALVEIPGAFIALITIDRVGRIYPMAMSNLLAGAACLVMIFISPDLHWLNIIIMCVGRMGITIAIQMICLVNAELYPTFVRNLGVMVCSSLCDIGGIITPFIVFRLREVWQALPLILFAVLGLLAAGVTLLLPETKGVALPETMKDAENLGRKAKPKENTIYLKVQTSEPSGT
Procedure: Uptake experiments were performed using HEK293 cells stably expressing the respective uptake transporters. The assays were conducted according to the actual SOLVO uptake transporter assay protocols (PR-ASY-UPT-General Protocol for Uptake Transporter Inhibition Assays).
Cells were cultured at 37° C. in a humidified atmosphere containing 5% CO2 and were plated onto standard 96-well tissue culture plates.
Before the experiment, the medium was removed, and the cells were washed twice with 100 μL of pre-warmed (37° C.) assay buffer listed in Table 15. The cells were pre-incubated at 37° C. for 30 minutes in assay buffer containing the test article at appropriate concentrations (Table 16), appropriate solvents for solvent controls and the reference inhibitor for reference inhibitor wells. After the pre-incubation step solutions were removed. Uptake experiments were performed at 37° C. in 50 μL of assay buffer containing the probe substrate and the test article or solvent and controls.
After the experiment, cells were washed twice with 100 μL of appropriate cold buffer and lysed with 150 μL scintillation cocktail. Radiolabeled probe substrate transport was determined by liquid scintillation counting.
Uptake of the probe substrate in control cells provided background activity values for all data points.

[1] = Metabolic stability in human intestinal homogenate; type: in vitro ADME; conditions: for % Remaining / Aa/Ai Mean (n = 2) / CLint(HIH) / T1/2: 1 μM; for CLint(HIH) / T1/2: 0.5 mg/mL homogenate, 1 mM NADPH
Procedure: The intestinal homogenate mixture solution was added to 96-well plates ([…]) in duplicate. […] Reaction was initiated by adding cofactor solution at 10 μL/well.
The intrinsic clearances were calculated using the following equations: […]

[2] = 0.04 μM nominal, sumatriptan, IC50 determination, Table 122
[3] = 0.12 μM nominal, sumatriptan, IC50 determination, Table 122
[4] = 1.11 μM nominal, sumatriptan, IC50 determination, Table 122
[5] = 3.00 μM nominal, sumatriptan, Table 121
[6] = 10.00 μM nominal, sumatriptan, IC50 determination, Table 122
[7] = 30.00 μM nominal, sumatriptan, IC50 determination, Table 122
[8] = 30.00 μM nominal, sumatriptan, Table 121
[9] = 0.14 μM nominal, 0.09 μM NSB corrected, follow-up assay
[10] = 1.24 μM nominal, 0.86 μM NSB corrected, follow-up assay
[11] = 10.00 μM nominal, 6.60 μM NSB corrected
[12] = 11.11 μM nominal, 7.89 μM NSB corrected, follow-up assay
[13] = 33.33 μM nominal, 24.33 μM NSB corrected, follow-up assay
[14] = 100.00 μM nominal, 77.00 μM NSB corrected
[15] = 100.00 μM nominal, 100.00 μM NSB corrected, follow-up assay
[16] = […] nominal, 1.89 μM NSB corrected, follow-up assay

## OC1(c2ccc(Cl)cc2)c2ccccc2C2=NCCN21 (stereo not shown) [Compound A, 5-(4-chlorophenyl)-2,3-dihydroimidazo[1,2-b]isoindol-5-ol, reference compound]
OCT1
  IC50: 2310 nM
OCT1; [2]
  Relative transporter specific accumulation: 91.36 ± 5.98 % of control
  Transporter specific accumulation: 881.00 ± 27.83 cpm
OCT1; [3]
  Relative transporter specific accumulation: 73.95 ± 5.69 % of control
  Transporter specific accumulation: 713.17 ± 36.62 cpm
OCT1; [4]
  Relative transporter specific accumulation: 65.12 ± 6.84 % of control
  Transporter specific accumulation: 628.00 ± 55.27 cpm
OCT1; [5]
  Relative transporter specific accumulation: 51.27 ± 1.85 % of control
  Transporter specific accumulation: 484.33 ± 16.61 cpm
OCT1; [6]
  Relative transporter specific accumulation: 25.23 ± 3.64 % of control
  Transporter specific accumulation: 243.33 ± 32.16 cpm
OCT1; [7]
  Relative transporter specific accumulation: 14.03 ± 4.75 % of control
  Transporter specific accumulation: 135.33 ± 45.14 cpm
OCT1; [8]
  Relative transporter specific accumulation: 15.00 ± 1.09 % of control
  Transporter specific accumulation: 141.67 ± 10.22 cpm
OCT1; human, Maximum % inhibition, OCT1, HEK293 cells, sumatriptan (10 μM), NIO: no inhibition observed
  inhibition at 10 µM: 86%
OCT1; human, Relative Inhibition, 0.04 μM nominal, sumatriptan, IC50 determination, Table 122
  inhibition at 0.04 μM: 9%
OCT1; human, Relative Inhibition, 0.12 μM nominal, sumatriptan, IC50 determination, Table 122
  inhibition at 0.12 μM: 26%
OCT1; human, Relative Inhibition, 1.11 μM nominal, sumatriptan, IC50 determination, Table 122
  inhibition at 1.11 μM: 35%
OCT1; human, Relative Inhibition, 10.00 μM nominal, sumatriptan, IC50 determination, Table 122
  inhibition at 10 µM: 75%
OCT1; human, Relative Inhibition, 30.00 μM nominal, sumatriptan, IC50 determination, Table 122
  inhibition at 30 μM: 86%
OCT1; human, Relative inhibition, 3.00 μM nominal, sumatriptan, Table 121
  inhibition at 3 μM: 49%
OCT1; human, Relative inhibition, 30.00 μM nominal, sumatriptan, Table 121
  inhibition at 30 μM: 85%

## COCCOC1(c2ccc(Cl)cc2)c2ccccc2C2=NCCN21 (stereo not shown) [Compound I-4]
[1]; 0 min
  Compound A formed (Aa/Ai): 0.46
  % Remaining: 100%
  Aa/Ai Mean (n = 2): 1.34
[1]
  CLint(HIH): 8.40 µL/min/mg
  T1/2: 2.75 h
[1]; 5 min
  % Remaining: 97.6%
  Aa/Ai Mean (n = 2): 1.31
  Compound A formed (Aa/Ai): 0.54
[1]; 10 min
  % Remaining: 87.3%
  Aa/Ai Mean (n = 2): 1.17
  Compound A formed (Aa/Ai): 0.50
[1]; 20 min
  % Remaining: 88.0%
  Aa/Ai Mean (n = 2): 1.18
  Compound A formed (Aa/Ai): 0.51
[1]; 30 min
  % Remaining: 87.4%
  Aa/Ai Mean (n = 2): 1.17
  Compound A formed (Aa/Ai): 0.58
[1]; 60 min
  % Remaining: 75.8%
  Aa/Ai Mean (n = 2): 1.01
  Compound A formed (Aa/Ai): 0.50
[1]; NCF60 (60 min, no cofactors)
  % Remaining: 80.4%
  Aa/Ai Mean (n = 2): 1.08
  Compound A formed (Aa/Ai): 0.69

## Clc1ccc(C2(OCC3OCCO3)c3ccccc3C3=NCCN32)cc1 (stereo not shown) [Compound I-19]
[1]; 0 min
  Compound A formed (Aa/Ai): 0.76
  % Remaining: 100%
  Aa/Ai Mean (n = 2): 0.90
[1]
  CLint(HIH): 20.0 µL/min/mg
  T1/2: 1.16 h
[1]; 5 min
  % Remaining: 85.6%
  Aa/Ai Mean (n = 2): 0.77
  Compound A formed (Aa/Ai): 0.67
[1]; 10 min
  % Remaining: 82.8%
  Aa/Ai Mean (n = 2): 0.75
  Compound A formed (Aa/Ai): 0.67
[1]; 20 min
  % Remaining: 68.4%
  Aa/Ai Mean (n = 2): 0.62
  Compound A formed (Aa/Ai): 0.65
[1]; 30 min
  % Remaining: 65.2%
  Aa/Ai Mean (n = 2): 0.59
  Compound A formed (Aa/Ai): 0.61
[1]; 60 min
  % Remaining: 52.6%
  Aa/Ai Mean (n = 2): 0.47
  Compound A formed (Aa/Ai): 0.53
[1]; NCF60 (60 min, no cofactors)
  % Remaining: 55.5%
  Aa/Ai Mean (n = 2): 0.50
  Compound A formed (Aa/Ai): 0.58
OCT1; [9]
  Relative inhibition: 16%
  Relative transporter specific accumulation: 84.03 ± 3.76 % of control
  Transporter specific accumulation: 896.33 ± 19.14 cpm
OCT1; [10]
  Relative inhibition: 39%
  Relative transporter specific accumulation: 61.16 ± 2.59 % of control
  Transporter specific accumulation: 652.33 ± 10.37 cpm
OCT1; [11]
  Relative inhibition: 71%
  Relative transporter specific accumulation: 29.35 ± 0.48 % of control
  Transporter specific accumulation: 930.00 ± 10.03 cpm
OCT1; [12]
  Relative inhibition: 73%
  Relative transporter specific accumulation: 27.13 ± 1.77 % of control
  Transporter specific accumulation: 289.33 ± 15.11 cpm
OCT1; [13]
  Relative inhibition: 86%
  Relative transporter specific accumulation: 14.47 ± 0.94 % of control
  Transporter specific accumulation: 154.33 ± 8.03 cpm
OCT1; [14]
  Relative inhibition: 92%
  Relative transporter specific accumulation: 8.17 ± 0.48 % of control
  Transporter specific accumulation: 259.00 ± 14.94 cpm
OCT1; [15]
  Relative inhibition: 92%
  Relative transporter specific accumulation: 7.84 ± 1.11 % of control
  Transporter specific accumulation: 83.67 ± 11.38 cpm
OCT1; 2-concentration assay, 100 μM (Compound A 30 μM)
  maximum inhibition of OCT1-mediated sumatriptan accumulation: 92%
OCT1; OCT1, HEK293 cells, sumatriptan (10 μM), NIO: no inhibition observed
  Maximum % inhibition: 92%
OCT1; [16]
  Relative inhibition: 55%
  Relative transporter specific accumulation: 45.47 ± 2.44 % of control
  Transporter specific accumulation: 485.00 ± 17.73 cpm
OCT1; follow-up assay
  maximum inhibition of OCT1-mediated sumatriptan accumulation: 92%
OCT1; follow-up assay, NSB-corrected concentrations for Compound I-19
  IC50: 3320 nM

Reference: patent publication US20250108038A1 (priority 2023, published 2025)
